In article PMC4342888, “A search for protein biomarkers links olfactory signal transduction to social immunity” (BMC Genomics, 2015) one finds IC50 and Kd data, which are given here for 30 molecules.

The target in assay [1] is T1, OBP21 (Apis mellifera, UniProt A0ACM8Q9Q6).
T1 construct: purified recombinant protein
T1 sequence (A0ACM8Q9Q6 17-135): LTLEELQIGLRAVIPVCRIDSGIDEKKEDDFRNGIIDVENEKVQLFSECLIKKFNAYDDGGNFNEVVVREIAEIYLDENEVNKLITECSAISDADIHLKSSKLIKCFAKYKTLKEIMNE
The assay can be described thus: biochemical. The following applies: IC50 against 2 uM 1-NPN. On the set-up: competitive fluorescence displacement of 2 uM 1-NPN from purified recombinant OBP (2 uM), Tris pH 7.4. The method, then:
(§1) The probe was excited at 337 nm and emission spectra were recorded between 380 and 450 nm. […] For determining binding constants, the intensity values corresponding to the maximum of fluorescence emission were plotted against free ligand concentrations. Bound ligand was evaluated from the values of fluorescence intensity assuming that the protein was 100% active, with a stoichiometry of 1:1 protein:ligand at saturation. The curves were linearized using Scatchard plots. Dissociation constants of the competitors were calculated from the corresponding IC50 values (concentrations of ligands halving the initial fluorescence value of 1-NPN), using the equation: KD = [IC50]/1 + [1-NPN]/K1-NPN, [1-NPN] being the free concentration of 1-NPN and K1-NPN being the dissociation constant of the complex Protein/1-NPN.  Figure 7 Potential ligands of OBPs. Twenty nine potential ligands were tested in a competitive binding assay for their binding to OBP16, OBP18 and OBP21. Each purified recombinant protein was mixed with the fluorescent probe N-phenyl-1-naphthylamine (1-NPN), both at the concentration of 2 μM in Tris buffer. Each mixture was titrated with a ligand and the displacement of the fluorescent probe from the complex was used to evaluate the relative dissociation constants, as described in the Methods section. Compounds with higher affinities are shown in the top panel, while compound with lower affinity are shown in the lower panel.

Assay [2] concerns the target T2, Odorant binding protein 16 (OBP16) (Apis mellifera, UniProt A0ACM8Q9Q1).
T2 construct: recombinant mature protein
T2 sequence (A0ACM8Q9Q1 17-135): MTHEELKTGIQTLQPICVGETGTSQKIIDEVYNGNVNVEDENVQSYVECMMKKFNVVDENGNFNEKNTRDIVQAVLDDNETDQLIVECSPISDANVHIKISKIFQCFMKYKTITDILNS
As to the kind of experiment: biochemical. The following applies: for IC50: IC50 against 2 uM 1-NPN; for Kd: KD calculated from IC50 of 1-NPN displacement. Also on record: competitive fluorescence displacement of 2 uM 1-NPN from purified recombinant OBP (2 uM), Tris pH 7.4. As to the method:
as §1

Assay [3] addresses T3, Odorant binding protein 18 (OBP18) (Apis mellifera, UniProt A0ACM8Q9Q2).
T3 construct: recombinant mature protein
T3 sequence (A0ACM8Q9Q2 17-135): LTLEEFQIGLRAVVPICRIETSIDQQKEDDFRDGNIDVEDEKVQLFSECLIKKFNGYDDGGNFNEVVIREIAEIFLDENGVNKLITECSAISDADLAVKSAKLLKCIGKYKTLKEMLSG
As to the kind of experiment: biochemical. On the set-up: competitive fluorescence displacement of 2 uM 1-NPN from purified recombinant OBP (2 uM), Tris pH 7.4. The following applies: for IC50: IC50 against 2 uM 1-NPN; for Kd: KD calculated from IC50 of 1-NPN displacement. The method, then: as §1

In assay [4] the target is T1, OBP21. The assay can be described thus: biochemical. On the set-up: competitive fluorescence displacement of 1-NPN (2 uM) from recombinant OBP, emission 380-450 nm. As to the method: as §1
In assay [5] the target is T3, Odorant binding protein 18 (OBP18). The assay can be described thus: direct fluorescence titration of purified protein.
The target in assay [6] is T2, Odorant binding protein 16 (OBP16). The assay can be described thus: direct fluorescence titration of purified protein.
The target of assay [7] is T1, OBP21. As to the kind of experiment: direct fluorescence titration of purified protein. It is filed as binding.

The IC50 is the concentration that gives 50% inhibition. As a reminder, the Kd is the constant that tells how readily two partners part at equilibrium. On to `CC(=O)CC/C=C(\C)CCC=C(C)C` [Geranylacetone], for which the IC50 in assay [1] is 1500 nM; in assay [2], 1800 nM; in assay [3], 1800 nM. The Kd is 800 nM in assay [2], 800 nM in assay [3] and 2500 nM in assay [4].
As for `CCCCCCCC/C=C\CCCCCCCC(N)=O` [Oleamide], the concentration for half-maximal inhibition (IC50) in assay [1] is 400 nM; in assay [2], 1000 nM; in assay [3] it was 100 nM. Besides, the Kd in assay [2] was 400 nM; in assay [3], 100 nM; in assay [4], 600 nM.
As to `O=C/C=C/c1ccccc1` [Cinnamaldehyde], the IC50 in assay [1] is above 20000 nM; in assay [2] it was 20000 nM; in assay [3], 3400 nM. For the same molecule, the figures for the Kd in assay [2] and in assay [3] were 9200 nM and 1500 nM, respectively.
Regarding `CC(C)=CCC/C(C)=C/C=O` [Citral], the IC50 was found to be 16000 nM in assay [1], 4400 nM in assay [2] and 1600 nM in assay [3]. Besides, the Kd was 2000 nM in assay [2], 700 nM in assay [3] and 27100 nM in assay [4].
As for `COc1cc(/C=C/CO)ccc1O` [Coniferyl alcohol], the IC50 in assay [1] was above 20000 nM; in assay [2], 18000 nM; in assay [3] it was 3600 nM. For the same molecule, the Kd in assay [2] was 8300 nM; in assay [3], 1600 nM.
Taken in the same sequence, the figures for `CC(C)=CCC/C(C)=C/CO` [geraniol] were above 20000 nM, 1100 nM, 300 nM, 500 nM and 100 nM.
Taken in the same sequence, the figures for `CCCCCCCCC(=O)O` [Nonanoic acid] were above 20000 nM, 1100 nM, 300 nM, 500 nM and 100 nM.
Taken in the same sequence, the figures for `OCc1ccccc1` [Benzyl alcohol] were above 20000 nM, 9800 nM, 2500 nM, 4500 nM and 1100 nM.
`CCCCCCCCCCCC(=O)O` [Dodecanoic acid]: the IC50 was 10000 nM in assay [1], 700 nM in assay [2] and 300 nM in assay [3]. The values for the Kd in assay [2], in assay [3] and in assay [4] were 300 nM, 100 nM and 16900 nM, respectively.
Consider `OCCc1ccccc1` [2-Phenyl ethanol], for which the IC50 in assay [1] is above 20000 nM; in assay [2], above 20000 nM; in assay [3], 2500 nM. For the same molecule, the dissociation constant (Kd) in assay [3] is 1100 nM.
Regarding `CC(=O)CCCCCCCC(=O)O` [9-Ketodecanoic acid], the IC50 in assay [1] was 4000 nM; in assay [2], 3500 nM; in assay [3], 1500 nM. Further, the Kd was 1600 nM in assay [2], 700 nM in assay [3] and 6800 nM in assay [4].
Consider `COC(=O)c1ccc(O)cc1` [Methyl p-hydroxybenzoate], for which the concentration for half-maximal inhibition (IC50) in assay [1] came out at 5000 nM; in assay [2], 2500 nM; in assay [3], 1900 nM. Also, the Kd in assay [2] was 1100 nM; in assay [3] it was 800 nM; in assay [4] it was 8500 nM.
Turning to `CC(C)CC(=O)O` [3-Methylbutanoic acid], the IC50 in assay [1] was above 20000 nM; in assay [2], 11000 nM; in assay [3], 2500 nM. Also, the Kd in assay [2] was 5000 nM; in assay [3], 1100 nM.
In the case of `COc1cc(CCO)ccc1O` [Homovanillic alcohol], the IC50 is above 20000 nM in assay [1], 10500 nM in assay [2] and 2700 nM in assay [3]. Besides, the figures for the Kd in assay [2] and in assay [3] were 4800 nM and 1200 nM, respectively.
Turning to `C=CCc1ccc(O)c(OC)c1` [Eugenol], the IC50 in assay [1] was above 20000 nM; in assay [2], above 20000 nM; in assay [3] it was 2300 nM. In assay [3], the Kd was 1000 nM.
Consider `c1ccc(Nc2cccc3ccccc23)cc1` [1-NPN, N-phenyl-1-naphthylamine], for which the Kd in assay [5], in assay [6] and in assay [7] was 1000 to 5000 nM each time.
`CCCCCC(C)=O` [2-Heptanone]: the results for the IC50 in assay [1], in assay [2] and in assay [3] were 20000 nM, 18000 nM and 2400 nM, respectively. Also, the values for the Kd in assay [2], in assay [3] and in assay [4] were 8300 nM, 1100 nM and 33900 nM, respectively.
As to `COc1cc(CC(=O)O)ccc1O` [Homovanillic acid], the IC50 is above 20000 nM in assay [1], 18000 nM in assay [2] and 3200 nM in assay [3]. The Kd in assay [2] was 8300 nM; in assay [3], 1400 nM.
For the molecule `CC(C)=CCCC(C)CC=O` (stereo not shown) [Citronellal], the 50% inhibitory concentration (IC50) was 8000 nM in assay [1], 3500 nM in assay [2] and 2500 nM in assay [3]. For the same molecule, the values for the Kd in assay [2], in assay [3] and in assay [4] were 1600 nM, 1100 nM and 13600 nM, respectively.
On to `CCCCCCCCCCCCCCCCCC(=O)OC` [Methyl stearate], for which the half-maximal inhibitory concentration (IC50) is above 20000 nM in assay [1], 1000 nM in assay [2] and 200 nM in assay [3]. In addition, the Kd in assay [2] is 500 nM; in assay [3] it was 100 nM.
Taken in the same sequence, the figures for `C=CC(C)(O)CCC=C(C)C` (stereo not shown) [Linalool] were above 20000 nM, 18000 nM, 3000 nM, 8300 nM and 1300 nM.
For the molecule `CCCCCCCC/C=C\CCCCCCCC(=O)O` [oleic acid], the results for the IC50 in assay [1], in assay [2] and in assay [3] were 300 nM, 900 nM and 100 nM, respectively. Further, the Kd in assay [2] was 400 nM; in assay [3], 40 nM; in assay [4] it was 400 nM.
As for `CCCCCCCCCCCCCCCC(=O)OCC` [Ethyl palmitate], the IC50 in assay [1] is above 20000 nM; in assay [2], 1100 nM; in assay [3], 200 nM. The Kd was 500 nM in assay [2] and 100 nM in assay [3].
On to `COc1ccccc1/C=C/C=O` [2-Methoxycinnamaldehyde], for which the IC50 in assay [1] was 20000 nM; in assay [2] it was 20000 nM; in assay [3], 3800 nM. Besides, the results for the Kd in assay [2], in assay [3] and in assay [4] were 9200 nM, 1700 nM and 33900 nM, respectively.
Turning to `CC(=O)OCCc1ccccc1` [2-Phenylethyl acetate], the IC50 is 18000 nM in assay [1], 8000 nM in assay [2] and 2500 nM in assay [3]. In addition, the Kd in assay [2] was 3700 nM; in assay [3], 1100 nM; in assay [4] it was 30500 nM.
Take `CCCCCCCCCCCCCCCC(=O)OC` [Methyl palmitate]: the half-maximal inhibitory concentration (IC50) in assay [1] is above 20000 nM; in assay [2] it was 900 nM; in assay [3], 200 nM. Also, the results for the Kd in assay [2] and in assay [3] were 400 nM and 100 nM, respectively.
As for `CC(=O)OC/C=C(\C)CCC=C(C)C` [geranyl acetate], the IC50 in assay [1] is 1800 nM; in assay [2] it was 200 nM; in assay [3], 200 nM. Moreover, the figures for the dissociation constant Kd in assay [2], in assay [3] and in assay [4] were 100 nM, 100 nM and 3100 nM, respectively.
Regarding `CCCCC/C=C\C/C=C\CCCCCCCC(=O)OC` [Methyl linoleate], the 50% inhibitory concentration (IC50) was above 20000 nM in assay [1], 2000 nM in assay [2] and 100 nM in assay [3]. Moreover, the results for the Kd in assay [2] and in assay [3] were 900 nM and 40 nM, respectively.
`CC(C)CCCC(C)CCO` (stereo not shown) [3,7-dimethyloctanol]: the IC50 in assay [1] turned out to be 2200 nM; in assay [2] it was 500 nM; in assay [3] it was 200 nM. Besides, the Kd in assay [2] was 200 nM; in assay [3], 100 nM; in assay [4], 3700 nM.
With `Cc1ccccc1C=CC=O` [2-Methylcinnamaldehyde], the IC50 in assay [1] came to 18000 nM; in assay [2], 7000 nM; in assay [3], 1200 nM. For the same molecule, the Kd is 3200 nM in assay [2], 500 nM in assay [3] and 30500 nM in assay [4].
